Values quoted from earlier work, collected in article PMC7395068, “The evolution of strategies to minimise the risk of human drug-induced liver injury (DILI) in drug discovery and development” (Archives of Toxicology, 2020).
Where a name gives a salt, the structure may show the parent alone. Read-outs that look alike come from different tables or passages of the source.

Assays:
[1] = cited from earlier work
human hepatocytes = details: cited from earlier work
[2] = cited from earlier work; remark: listed apart in the source
[3] = human hepatocyte imaging, ref Xu 2008
[4] = assignment in Xu 2008, ref Xu 2008
[5] = binary in vivo human DILI call, ref Chen 2016
[6] = human DILI, LTKB DILIrank category, ref Chen 2016

Structure (SMILES) | Structural based (HCI), In vitro Assay (human hepatocytes; [3]) | In vivo DILI [2, 4] | Structural based (HCI) (human hepatocytes; In vitro Assay, ref Xu 2008) | In vivo DILI ([2]; ref Xu 2008) | other results
N[C@@H]1C[C@H]1c1ccccc1 (racemic) [tranylcypromine] | -VE | -VE |  |  | DILI +VE (5-8), DILI -VE (-4) ([1]; binary in vivo DILI call given beside the severity category, ref Chen 2016): +VE; DILI severity category ([1]; human DILI concern category (LTKB DILIrank), ref Chen 2016): vLess-DILI-Concern
CC(=O)OCC[N+](C)(C)C [acetylcholine chloride] |  |  | -VE | -VE | DILI +VE (5-8), DILI -VE (-4) ([1]; ref Chen 2016): -VE; DILI severity category ([1]; ref Chen 2016): vNo-DILI-Concern
C=C1[C@@H]2CC[C@H]3[C@]4(C)C[C@H](O[C@@H]5O[C@H](CO)[C@@H](OS(=O)(=O)O)[C@H](OS(=O)(=O)O)[C@H]5OC(=O)CC(C)C)C[C@@H](C(=O)O)[C@H]4CC[C@]3(C2)[C@H]1O [atractyloside] |  |  | +VE | +VE | 
C[C@H]1C[C@H]2[C@@H]3CCC4=CC(=O)C=C[C@]4(C)[C@@]3(Cl)[C@@H](O)C[C@]2(C)[C@@]1(O)C(=O)CO [beclomethasone] |  |  |  |  | Structural based (HCI) (human hepatocytes): -VE; In vivo DILI ([2]; in vivo): -VE
C[C@H]1C[C@H]2[C@@H]3CCC4=CC(=O)C=C[C@]4(C)[C@@]3(F)[C@@H](O)C[C@]2(C)[C@@]1(O)C(=O)CO [betamethasone] |  |  | -VE | -VE | 
CS(=O)(=O)OCCCCOS(C)(=O)=O [busulphan] |  |  | +VE | +VE | 
[Cl][Cd][Cl] [cadmium chloride] |  |  | +VE | +VE | 
COC(=O)Nc1nc2ccccc2[nH]1 [carbendazim] |  |  |  |  | Structural based (HCI) (human hepatocytes): -VE; In vivo DILI ([2]; in vivo): +VE
CC1(C)[C@@H](OC(=O)CCC(=O)[O-])CC[C@]2(C)[C@H]3C(=O)C=C4[C@@H]5C[C@@](C)(C(=O)[O-])CC[C@]5(C)CC[C@@]4(C)[C@]3(C)CC[C@@H]12.[Na+].[Na+] [carbenoxolone disodium] |  |  |  |  | Structural based (HCI) (human hepatocytes): -VE; In vivo DILI ([2]; in vivo): -VE
CN/C(=N/CCSCc1nc[nH]c1C)NC#N [cimetidine] |  |  | -VE | -VE | DILI +VE (5-8), DILI -VE (-4) ([1]; ref Chen 2016): +VE; DILI severity category ([1]; ref Chen 2016): vLess-DILI-Concern; In vivo DILI ([2]; […]): +VE
OCCN1CCN(CC/C=C2/c3ccccc3Sc3ccc(C(F)(F)F)cc32)CC1 [cis(z)-flupentixol] |  |  |  |  | Structural based (HCI) (human hepatocytes): -VE; In vivo DILI ([2]; in vivo): -VE
CN(C)CCCC1(c2ccc(F)cc2)OCc2cc(C#N)ccc21 (centres unmarked) [citalopram] |  |  |  |  | DILI +VE (5-8), DILI -VE (-4) ([1]; in vivo): +VE; DILI severity category ([1]; in vivo): vLess-DILI-Concern; Structural based (HCI) (human hepatocytes): -VE; In vivo DILI ([2]; in vivo): -VE
Nc1nc(Cl)nc2c1ncn2[C@H]1C[C@H](O)[C@@H](CO)O1 [cladribine] |  |  | -VE | -VE | DILI +VE (5-8), DILI -VE (-4) ([1]; ref Chen 2016): -VE; DILI severity category ([1]; ref Chen 2016): Ambiguous DILI-concern
NC1CCN(c2c(F)cc3c(=O)c(C(=O)O)cn(C4CC4)c3c2Cl)C1 (centres unmarked) [clinafloxacin] |  |  | -VE | -VE | 
CN1CCC(=C2c3ccccc3C=Cc3ccccc32)CC1 [cyproheptadine] |  |  | +VE | +VE | DILI +VE (5-8), DILI -VE (-4) ([1]; ref Chen 2016): +VE; DILI severity category ([1]; ref Chen 2016): vLess-DILI-Concern
N[C@H]1C(O)O[C@H](CO)[C@H](O)[C@@H]1O (stereo partly drawn) [d-galactosamine] |  |  |  |  | Structural based (HCI) (human hepatocytes): -VE; In vivo DILI ([2]; in vivo): +VE
CN(C)[C@@H]1C(O)=C(C(N)=O)C(=O)[C@@]2(O)C(O)=C3C(=O)c4c(O)ccc(Cl)c4[C@@H](O)[C@H]3C[C@@H]12 [demeclocycline] |  |  | -VE | +VE | DILI +VE (5-8), DILI -VE (-4) [1, 5]: -VE; DILI severity category [1, 6]: Ambiguous DILI-concern
CC(C)N(CCC(C(N)=O)(c1ccccc1)c1ccccn1)C(C)C (centres unmarked) [disopyramide phosphate] |  |  | -VE | +VE | 
CCO.C[C@H]1c2cccc(O)c2C(O)=C2C(=O)[C@]3(O)C(O)=C(C(N)=O)C(=O)[C@@H](N(C)C)[C@@H]3[C@@H](O)[C@@H]21.C[C@H]1c2cccc(O)c2C(O)=C2C(=O)[C@]3(O)C(O)=C(C(N)=O)C(=O)[C@@H](N(C)C)[C@@H]3[C@@H](O)[C@@H]21.Cl.Cl.O [doxycycline hyclate] |  |  |  |  | Structural based (HCI) (human hepatocytes): +VE; In vivo DILI ([2]; in vivo): +VE
C[C@@H](CO)NC(=O)[C@@H]1C=C2c3cccc4[nH]cc(c34)C[C@H]2N(C)C1 [ergonovine maleate] |  |  | -VE | -VE | 
C[C@]12CC[C@@H]3c4ccc(O)cc4CC[C@H]3[C@@H]1CC[C@@H]2O[C@@H]1O[C@H](C(=O)O)[C@@H](O)[C@H](O)[C@H]1O [estradiol 17b glucuronide] |  |  |  |  | Structural based (HCI) (human hepatocytes): -VE; In vivo DILI ([2]; in vivo): +VE
COc1cc([C@@H]2c3cc4c(cc3[C@@H](O[C@@H]3O[C@@H]5CO[C@@H](C)O[C@H]5[C@H](O)[C@H]3O)[C@H]3COC(=O)[C@H]23)OCO4)cc(OC)c1O [etoposide] |  |  | -VE | +VE | DILI +VE (5-8), DILI -VE (-4) ([1]; ref Chen 2016): +VE; DILI severity category ([1]; ref Chen 2016): vLess-DILI-Concern; In vivo DILI ([2]; […]): +VE; In vivo DILI ([2]; ref O'Brien 2006): +VE; In vivo DILI ([2]; ref Persson 2013): +VE; In vivo DILI ([2]; ref Tolosa 2012): +VE
N#CC(C#N)=NNc1ccc(OC(F)(F)F)cc1 [fccp] |  |  | +VE | +VE | In vivo DILI ([2]; ref O'Brien 2006): +VE
CC(C(=O)O)c1cccc(Oc2ccccc2)c1 (centres unmarked) [fenoprofen sodium] |  |  | +VE | +VE | 

Structure (SMILES) | Structural based (HCI), In vitro Assay (human hepatocytes; [3]) | In vivo DILI [2, 4] | Structural based (HCI) (human hepatocytes; In vitro Assay, ref Xu 2008) | In vivo DILI ([2]; ref Xu 2008) | other results
CC(Cc1ccc(O)cc1)NCC(O)c1cc(O)cc(O)c1 (centres unmarked) [fenoterol hbr] |  |  |  |  | Structural based (HCI) (human hepatocytes): -VE; In vivo DILI ([2]; in vivo): +VE
O=c1[nH]c(=O)n([C@H]2C[C@H](O)[C@@H](CO)O2)cc1F [floxuridine] |  |  | -VE | +VE | In vivo DILI ([2]; […]): +VE
NCC1(CC(=O)O)CCCCC1 [gabapentin] |  |  | -VE | -VE | DILI +VE (5-8), DILI -VE (-4) ([1]; ref Chen 2016): +VE; DILI severity category ([1]; ref Chen 2016): vLess-DILI-Concern; In vivo DILI ([2]; ref Vorrink 2018): -VE
O.O=[N+]([O-])[O][Ga]([O][N+](=O)[O-])[O][N+](=O)[O-] [gallium nitrate hydrate] | -VE | -VE |  |  | 
COc1c(N2CCNC(C)C2)c(F)cc2c(=O)c(C(=O)O)cn(C3CC3)c12 (centres unmarked) [gatifloxacin] | -VE | -VE |  |  | 
Cc1ccc(C)c(OCCCC(C)(C)C(=O)O)c1 [gemfibrozil] |  |  | +VE | +VE | DILI +VE (5-8), DILI -VE (-4) ([1]; ref Chen 2016): +VE; DILI severity category ([1]; ref Chen 2016): vMost-DILI-Concern
NS(=O)(=O)c1cc2c(cc1Cl)NCNS2(=O)=O [hydrochlorothiazide] |  |  |  |  | DILI +VE (5-8), DILI -VE (-4) ([1]; in vivo): +VE; DILI severity category ([1]; in vivo): vLess-DILI-Concern; Structural based (HCI) (human hepatocytes): +VE; In vivo DILI ([2]; in vivo): +VE
CC(=O)[C@]1(O)Cc2c(O)c3c(c(O)c2[C@@H](O[C@H]2C[C@H](N)[C@H](O)[C@H](C)O2)C1)C(=O)c1ccccc1C3=O [idarubicin] | -VE | -VE |  |  | DILI +VE (5-8), DILI -VE (-4) [1, 5]: -VE; DILI severity category [1, 6]: Ambiguous DILI-concern
O=c1[nH]c(=O)n([C@H]2C[C@H](O)[C@@H](CO)O2)cc1I [idoxuridine] | -VE | +VE |  |  | 
CC(COc1ccccc1)NC(C)C(O)c1ccc(O)cc1 (centres unmarked) [isoxsuprine] |  |  |  |  | DILI +VE (5-8), DILI -VE (-4) ([1]; in vivo): -VE; DILI severity category ([1]; in vivo): vNo-DILI-Concern; Structural based (HCI), In vitro Assay (human hepatocytes): -VE; In vivo DILI ([2]; in vivo): -VE
CCSCC[C@H](N)C(=O)O [l-ethionine] | -VE | +VE |  |  | 
CC(=O)O[C@]1(C(C)=O)CC[C@H]2[C@@H]3C[C@H](C)C4=CC(=O)CC[C@]4(C)[C@H]3CC[C@@]21C [medroxyprogesterone acetate] | -VE | -VE |  |  | 
CN1CCCCC1CCN1c2ccccc2Sc2ccc([S+](C)[O-])cc21 (centres unmarked) [mesoridazine besylate] | -VE | +VE |  |  | 
COc1ccc(OC)c(C(O)C(C)N)c1 (centres unmarked) [methoxamine] | -VE | -VE |  |  | 
C[C@H]1C(=O)O[C@@H]2CCN3CC=C(COC(=O)[C@](C)(O)[C@]1(C)O)[C@H]23 [monocrotaline] |  |  |  |  | Structural based (HCI), In vitro Assay (human hepatocytes): -VE; In vivo DILI ([2]; in vivo): +VE
C=C1CC[C@@]2(O)[C@H]3Cc4ccc(O)c5c4[C@@]2(CCN3CC2CC2)[C@H]1O5 [nalmefene] | -VE | -VE |  |  | 
CCCOc1ccc2[nH]c(NC(=O)OC)nc2c1 [oxybendazole] | -VE | +VE |  |  | 
CN(C)CCCN1c2ccccc2Sc2ccccc21 [promazine] | -VE | -VE |  |  | 
CN[C@@H](C)[C@@H](O)c1ccccc1 [pseudoephedrine] |  |  |  |  | DILI +VE (5-8), DILI -VE (-4) ([1]; in vivo): -VE; DILI severity category ([1]; in vivo): vNo-DILI-Concern; Structural based (HCI), In vitro Assay (human hepatocytes): -VE; In vivo DILI ([2]; in vivo): -VE
COc1ccc(C[C@H](N)C(=O)N[C@H]2[C@@H](O)[C@H](n3cnc4c(N(C)C)ncnc43)O[C@@H]2CO)cc1 [puromycin] | +VE | +VE |  |  | 
CC1=C(/C=C/C(C)=C/C=C/C(C)=C/C(=O)O)C(C)(C)CCC1 [retinoic acid] |  |  | +VE | +VE | In vivo DILI ([2]; […]): +VE
CCCCNc1ccc(C(=O)OCCN(C)C)cc1 [tetracaine] | -VE | -VE |  |  | 
CC(C)(C)NC[C@H](O)COc1nsnc1N1CCOCC1 [timolol maleate] | -VE | +VE |  |  | 
